# Values joined by “and” are separate entries in the source; they are usually repeats but may differ in a detail not shown here. Equal values may be shown once. Read-outs that look alike come from different tables or passages of the source.
# Legend:
# Iba-1+ microglia = test: Primary rat VM neuron-glia co-culture, Iba-1+ microglia (ICC); format: cell-based; conditions: for Iba-1+ cells (% of control): Fig. 2g
# Protocol: Primary rat VM neuron-glia co-culture was prepared from E14 rat embryos (Fisher 344; Charles River)[33]. […] After blocking with 10% normal donkey serum (NDS) and 0.1% Triton X-100 solution for 1 h at room temperature, cells were incubated with primary antibodies against TH (1:1,000; Pel Freez, P40401) and Iba-1 (1:500; Abcam, ab5076) in 1% NDS and 0.1% Triton X-100 solution for overnight at 4 °C. Alexa Fluor 568- or Alexa Fluor 488-conjugated anti-rabbit or anti-goat secondary antibodies (1:500; Invitrogen) were incubated following the primary antibody incubation, and then cover glasses were mounted using FluoShield^TM mounting media (Sigma-Aldrich). Fluorescence images were taken using a KEYENCE microscope (BZ-X800; KEYENCE).
# [1] = BBB permeability assay, plasma and brain LC-MS/MS after oral administration; format: in vivo, rat;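 as to plasma: oral dosing solution 2 mg/mL in saline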
# Protocol: Final dose of […] 4A7C-301 dissolved in saline was orally administrated to SD rats (male, 7-9 weeks, n = 3 per group). To measure the 4A7C-301 concentration in the brain, rats were fully exsanguinated to remove residual blood prior to brain collection. Brain and blood samples were collected at 0.25, 0.5, 1, 2, 4, 6, 8, and 24 h after administration. A robust LC-MS/MS method was developed with the lower limit of quantification (LLOQ) of 1 ng/mL and 0.5 ng/mL for the quantification of 4A7C-301 in plasma and brain, respectively. The accuracy of all accepted QC samples of 4A7C-301 at low, middle, and high concentration levels met the acceptance criteria. Isolated brains were homogenized in PBS as brain weight (g) to PBS volume (mL) ratio 1:3. The desired serial concentrations of working solutions were achieved by diluting stock solution of analyte with 50% acetonitrile in water solution. 5 µL of working solutions (5, 10, 20, 50, 100, 500, 1000, 5000 ng/mL) were added to 50 μl of male SD rat blank brain homogenate to achieve calibration standards of 0.5 ~ 500 ng/mL (0.5, 1, 2, 5, 10, 50, 100, 500 ng/mL) in a total volume of 55 μl. Four quality control samples at 1.5 ng/mL, 3 ng/mL, 50 ng/mL and 400 ng/mL for brain homogenate were prepared independently of those used for the calibration curves. These QC samples were prepared on the day of analysis in the same way as calibration standards. 55 μl of standards, 55 μl of QC samples and 55 μl of unknown samples (50 µL of brain homogenate with 5 µL of blank solution) were added to 200 μl of acetonitrile containing IS mixture for precipitating protein, respectively. Then the samples were vortexed for 30 seconds. After centrifugation at 4 °C, 4000 x g for 15 min, the supernatant was diluted 5 times with water. 25 µl of diluted supernatant was injected into the LC-MS/MS system (AB API 5500 + LC-MS/MS instruments (Serial No. EX224682008)) for quantitative analysis. To measure the 4A7C-301 concentration in the plasma, serum samples were obtained from the collected blood and analyzed by LC-MS/MS system as indicated above.
# [2] = time 00:15:00, individual replicates
# [3] = time 0:30:00, individual replicates
# [4] = time 1:00:00, individual replicates
# [5] = time 2:00:00, individual replicates
# [6] = time 4:00:00, individual replicates
# [7] = time 6:00:00, individual replicates
# [8] = time 8:00:00, individual replicates
# [9] = time 24:00:00, individual replicates
compound,measurement,setting,value
"CCN1CCN(c2cc(N3CCN(CC)CC3)nc(NCCNc3ccnc4cc(Cl)ccc34)n2)CC1 [4A7C-301, N^1-(4,6-bis(4-ethylpiperazin-1-yl)pyrimidin-2-yl)-N^2-(7-chloroquinolin-4-yl)ethane-1,2-diamine]",Iba-1+ cells (% of control),"Iba-1+ microglia; 4A7C-301 only, 50 nM, 0.05 µM",77.52 % of control and 86.67 % of control and 96.15 % of control
same,Iba-1+ cells (% of control),"Iba-1+ microglia; 4A7C-301 only, 500 nM, 0.5 µM",69.77 % of control and 67.62 % of control and 86.92 % of control
same,Iba-1+ cells (% of control),"Iba-1+ microglia; + LPS, 5 nM, 0.005 µM",240.31 % of control and 188.57 % of control and 210 % of control
same,Iba-1+ cells (% of control),"Iba-1+ microglia; + LPS, 50 nM, 0.05 µM",160.47 % of control and 128.57 % of control and 139.23 % of control
same,Iba-1+ cells (% of control),"Iba-1+ microglia; + LPS, 500 nM, 0.5 µM",102.4 % of control and 80.95 % of control and 100.31 % of control
same,Iba-1+ cells (% of control),"Iba-1+ microglia; + LPS, 1000 nM, 1 µM",86.82 % of control and 87.62 % of control and 103.69 % of control
same,Iba-1+ cells (% of control),"Iba-1+ microglia; + MPP+, 5 nM, 0.005 µM",114.73 % of control and 125.71 % of control and 144.62 % of control
same,Iba-1+ cells (% of control),"Iba-1+ microglia; + MPP+, 50 nM, 0.05 µM",96.12 % of control and 105.71 % of control and 78.46 % of control
same,Iba-1+ cells (% of control),"Iba-1+ microglia; + MPP+, 500 nM, 0.5 µM",64.34 % of control and 63.81 % of control and 42.31 % of control
same,Iba-1+ cells (% of control),"Iba-1+ microglia; + MPP+, 1000 nM, 1 µM",42.64 % of control and 72.38 % of control and 48.46 % of control
same,concentration of optimal suppression of microglial activation,Iba-1+ microglia; against LPS,500 nM
same,"concentration of optimal suppression, times lower than CQ",Iba-1+ microglia; against LPS,40 times
same,brain permeability (in words),"[1]; SD rats, oral, 20 mg/kg, plasma and brain homogenates",penetrated into the brain well
same,concentration at […],"[1]; male, SD, rat, brain, oral, 2 mg/mL, time 00:15:00, individual replicates, read-out: Brain",0 ng/g
same,concentration at 0.5 h,"[1]; male, SD, rat, brain, oral, 2 mg/mL, time 0:30:00, individual replicates, read-out: Brain",0 ng/g
same,concentration at 8 h,"[1]; male, SD, rat, brain, oral, 2 mg/mL, time 8:00:00, individual replicates",28.7 ng/g
same,concentration at […],"[1]; male, SD, rat, plasma, oral, 2 mg/mL, time 00:15:00, individual replicates, read-out: Plasma",0 µg/mL
same,concentration at 0.5 h,"[1]; male, SD, rat, plasma, oral, 2 mg/mL, time 0:30:00, individual replicates, read-out: Plasma",0 µg/mL
same,Brain,[1]; [2],0 ng/g
same,Plasma,[1]; [2],0 ng/mL
same,Brain,[1]; [3],0 ng/g
same,Plasma,[1]; [3],0 ng/mL
same,B/P ratio,[1]; [4],0.033 and 0.167 and 0.126
same,Brain,[1]; [4],3.39 ng/g and 9.12 ng/g and 2.65 ng/g
same,Plasma,[1]; [4],20.3 ng/mL and 72.3 ng/mL and 80.8 ng/mL
same,B/P ratio,[1]; [5],0.395 and 0.077 and 0.505
same,Brain,[1]; [5],7.24 ng/g and 13.5 ng/g and 6 ng/g
same,Plasma,[1]; [5],94 ng/mL and 26.7 ng/mL and 15.2 ng/mL
same,B/P ratio,[1]; [6],0.137 and 0.126 and 1.648
same,Brain,[1]; [6],27.2 ng/g and 13.5 ng/g and 7.16 ng/g
same,Plasma,[1]; [6],216 ng/mL and 8.18 ng/mL and 52.2 ng/mL
same,B/P ratio,[1]; [7],0.074 and 0.166 and 2.055
same,Brain,[1]; [7],19.9 ng/g and 24 ng/g and 4.36 ng/g
same,Plasma,[1]; [7],120 ng/mL and 11.7 ng/mL and 58.6 ng/mL
same,B/P ratio,[1]; [8],0.112 and 3.845 and 0.261
same,Brain,[1]; [8],16.8 ng/g and 20.2 ng/g
same,Plasma,[1]; [8],7.47 ng/mL and 64.3 ng/mL and 180 ng/mL
same,B/P ratio,[1]; [9],10.245 and 0.957 and 6.289
same,Brain,[1]; [9],61.6 ng/g and 20 ng/g and 36 ng/g
same,Plasma,[1]; [9],64.4 ng/mL and 3.18 ng/mL and 3.51 ng/mL
